# Results reported in patent US4725683A, “Fluorophenoxyphenoxypropionates and derivatives thereof” (The Dow Chemical Company, priority 1985, dated 1988).
# How the values were obtained:
# Assay type in all cases: in vivo
# Yellow Foxtail = assay: Selective postemergence, track sprayer
# Method: (§1) Representative compositions of the present invention were evaluated for the postemergence control of species of plants listed in Table A. In these evaluations, pots of the plant species listed in Table A, grown to a height of about 10 cms, were used. Aqueous spray compositions, containing various amounts of 2-[4-(2-fluoro-4-trifluoromethylphenoxy)-phenoxy]propionic acid methy ester, i.e., 125 ppm, 62.5 ppm, 31.25 ppm, 15.6 ppm, 7.8 ppm and 3.9 ppm, respectively, were applied to separate pots. The spray compositions were made by mixing the active ingredient in acetone to 1/2 the final volume, i.e., twice the final concentration. An equal amount of water was added to the active ingredient/acetone mixture wherein the water contained 0.1 percent by weight of TWEEN® 200 surfactant. The application to the plants was made to the point of run-off and was carried out with conventional spraying equipment. Other pots were sprayed with similar compositions containing no toxicant to serve as controls. Thereafter, the pots were maintained under conditions conducive for plant growth. Two weeks after treatment, the pots were examined for plant growth and evaluated on a scale of 0 to 100 where 0 represents no effect and 100 represents complete kill. The results of the examination of the treated pots are set forth below in Table A.
# (§2) To further define the selective postemergence herbicidal characteristics of compounds of the present invention, chemicals were applied to additional species of grasses as listed in Table F. Chemicals evaluated were 2-[4-(4-bromo-2-fluorophenoxy)phenoxy]propionic acid methyl ester and its R isomer. Treatment conditions were similar to those described in Example A except that chemicals were delivered through a track sprayer set to deliver the appropriate dosages in 280.6 L/hectare of water containing 0.1% Tween-20 surfactant.
# Canarygrass = assay: Selective postemergence, track sprayer
# Method: as §1, §2
# sugar beets = assay: Postemergent activity; conditions: 125 ppm
# Method: as §1
# pigweed [1] = assay: Postemergent activity; conditions: 125 ppm
# Method: as §1
# cocklebur = assay: Postemergent activity; conditions: 125 ppm
# Method: as §1
# soybeans = assay: Postemergent activity; conditions: 125 ppm
# Method: as §1
# Johnson Grass = assay: Postemergent activity
# Method: as §1
# cotton [2] = assay: Postemergent activity; conditions: 125 ppm
# Method: as §1
# jimson weed [3] = assay: Postemergent activity; conditions: 125 ppm
# Method: as §1
# morning glory = assay: Postemergent activity; conditions: 125 ppm
# Method: as §1
# rape [4] = assay: Postemergent activity; conditions: 125 ppm
# Method: as §1
# velvet leaf [5] = assay: Postemergent activity; conditions: 125 ppm
# Method: as §1
# sugarbeets = assay: Preemergent activity; conditions: 0.28 kgs/hectare, seeds
# Method: (§3) In a representative operation, 2-[4-(2-fluoro-4-trifluoromethylphenoxy)phenoxy]propionic acid methyl ester, to be utilized in a series of tests, is dissolved in acetone to one half of the final volume (twice the final concentration) to be used and the acetone solution in each case is admixed with an equal volume of water containing 0.1 percent by weight of Tween-20 surface active material (Tween-20 is a trademark of Atlas Chemical Company). The composition, generally in the nature of an emulsion, was employed to treat separate respective seed beds of sandy loam soil of good nutrient content wherein each seed bed contained separate groups of good viable seeds, each group being of one of a known plant species. The various beds were positioned side by side and exposed to substantially identical conditions of temperature and light. Each bed was maintained so as to prevent any interaction with the test compound in different seed beds. Each seed bed was treated with the composition as a spray employing conventional spraying equipment to deposit a predetermined amount of the compound uniformly throughout the surface of the bed. Another seed bed was treated only with the acetone-Tween-20 water mixture with no chemical added to serve as a control. After treatment, the seed beds were maintained for two weeks under greenhouse conditions conducive for good plant growth and watered as necessary. Control refers to the reduction in growth of the test species in the presence of the test chemical relative to the observed growth of the same species in the absence of the test chemical.
# (§4) Substantially the same procedures described in Example C were repeated using as the active ingredients
# pigweed [6] = assay: Preemergent activity; conditions: 0.28 kgs/hectare, seeds
# Method: as §3, §4
# cotton [7] = assay: Preemergent activity; conditions: 0.28 kgs/hectare, seeds
# Method: as §3, §4
# jimson weed [8] = assay: Preemergent activity; conditions: 0.28 kgs/hectare, seeds
# Method: as §3, §4
# yellow nutsedge = assay: Preemergent activity; conditions: 0.28 kgs/hectare, seeds
# Method: as §3, §4
# rape [9] = assay: Preemergent activity; conditions: 0.28 kgs/hectare, seeds
# Method: as §3, §4
# soybean = assay: Preemergent activity; conditions: 0.28 kgs/hectare, seeds
# Method: as §3, §4
# velvet leaf [10] = assay: Preemergent activity; conditions: 0.28 kgs/hectare, seeds
# Method: as §3, §4
# Crabgrass = assay: Postemergent activity
# Procedure, shortened: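 Potted crabgrass plants grown to roughly 10 cms tall were sprayed to run-off with aqueous compositions of the test compound, which was first dissolved in acetone at twice the final concentration and then diluted with an equal volume of water containing 0.1 percent by weight TWEEN® 200 surfactant. Pots sprayed without toxicant served as controls. After two weeks under growth-favorable conditions, plant control was scored from 0 (no effect) to 100 (complete kill).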
# Barnyard Grass = assay: Postemergent activity
# Procedure, shortened: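 Potted plants about 10 cms tall were sprayed to run-off with conventional equipment using aqueous compositions. These were made by dissolving the active ingredient in acetone at twice the final concentration and diluting with an equal volume of water containing 0.1 percent TWEEN® 200 surfactant. Toxicant-free sprays served as controls. After two weeks of growth, injury was scored from 0 (no effect) to 100 (complete kill).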
compound,measurement,setting,value
"COC(=O)C(C)Oc1ccc(Oc2ccc(Br)cc2F)cc1 (racemic) [Example 4-Bromo-, 2-[4-(4-bromo-2-fluorophenoxy)phenoxy]propionic acid methyl ester]",Percent Control,Yellow Foxtail; 0.0011 kgs/hectare,0%
same,Percent Control,Yellow Foxtail; 0.0023 kgs/hectare,0%
same,Percent Control,Yellow Foxtail; 0.0045 kgs/hectare,0%
same,Percent Control,Yellow Foxtail; 0.009 kgs/hectare,40%
same,Percent Control,Yellow Foxtail; 0.035 kgs/hectare,80%
same,Percent Control,Yellow Foxtail; 0.07 kgs/hectare,100%
same,Percent Control,Yellow Foxtail; 0.14 kgs/hectare,100%
same,Percent Control,Yellow Foxtail; 0.28 kgs/hectare,100%
same,Percent Control,Yellow Foxtail; 0.56 kgs/hectare,100%
same,Percent Control,Canarygrass; 0.0011 kgs/hectare,0%
same,Percent Control,Canarygrass; 0.0023 kgs/hectare,0%
same,Percent Control,Canarygrass; 0.0045 kgs/hectare,0%
same,Percent Control,Canarygrass; 0.009 kgs/hectare,0%
same,Percent Control,Canarygrass; 0.035 kgs/hectare,50%
same,Percent Control,Canarygrass; 0.07 kgs/hectare,100%
same,Percent Control,Canarygrass; 0.14 kgs/hectare,100%
same,Percent Control,Canarygrass; 0.28 kgs/hectare,100%
same,Percent Control,Canarygrass; 0.56 kgs/hectare,100%
COC(=O)C(C)Oc1ccc(Oc2ccc(C(F)(F)F)cc2F)cc1 (stereo not shown) [2-[4-(2-fluoro-4-trifluoromethylphenoxy)phenoxy]propionic acid methyl ester],phytotoxic effect,sugar beets,inactive
same,phytotoxic effect,pigweed [1],inactive
same,phytotoxic effect,cocklebur,inactive
same,phytotoxic effect,soybeans,inactive
same,% Control,Johnson Grass; 3.9 ppm,60%
same,% Control,Johnson Grass; 7.8 ppm,100%
same,% Control,Johnson Grass; 15.6 ppm,100%
same,% Control,Johnson Grass; 31.25 ppm,100%
same,% Control,Johnson Grass; 62.5 ppm,100%
same,% Control,Johnson Grass; 125 ppm,100%
same,phytotoxic effect,cotton [2],inactive
same,phytotoxic effect,jimson weed [3],inactive
same,phytotoxic effect,morning glory,inactive
same,phytotoxic effect,rape [4],inactive
same,phytotoxic effect,velvet leaf [5],inactive
same,phytotoxic effect,sugarbeets,inactive
same,phytotoxic effect,pigweed [6],inactive
same,phytotoxic effect,cotton [7],inactive
same,phytotoxic effect,jimson weed [8],inactive
same,phytotoxic effect,yellow nutsedge,inactive
same,phytotoxic effect,rape [9],inactive
same,phytotoxic effect,soybean,inactive
same,phytotoxic effect,velvet leaf [10],inactive
same,% Control,Crabgrass; 3.9 ppm,90%
same,% Control,Crabgrass; 7.8 ppm,100%
same,% Control,Crabgrass; 15.6 ppm,100%
same,% Control,Crabgrass; 31.25 ppm,100%
same,% Control,Crabgrass; 62.5 ppm,100%
same,% Control,Crabgrass; 125 ppm,100%
same,% Control,Barnyard Grass; 3.9 ppm,50%
same,% Control,Barnyard Grass; 7.8 ppm,100%
same,% Control,Barnyard Grass; 15.6 ppm,100%
same,% Control,Barnyard Grass; 31.25 ppm,100%
same,% Control,Barnyard Grass; 62.5 ppm,100%
same,% Control,Barnyard Grass; 125 ppm,100%
"COC(=O)[C@@H](C)Oc1ccc(Oc2ccc(Br)cc2F)cc1 [4-Bromo-(R-Enantiomer), R enantiomer of 2-[4-(4-bromo-2-fluorophenoxy)phenoxy]propionic acid methyl ester]",Percent Control,Yellow Foxtail; 0.00055 kgs/hectare,0%
same,Percent Control,Yellow Foxtail; 0.0011 kgs/hectare,0%
same,Percent Control,Yellow Foxtail; 0.0023 kgs/hectare,20%
same,Percent Control,Yellow Foxtail; 0.0045 kgs/hectare,20%
same,Percent Control,Yellow Foxtail; 0.009 kgs/hectare,50%
same,Percent Control,Yellow Foxtail; 0.018 kgs/hectare,90%
same,Percent Control,Yellow Foxtail; 0.035 kgs/hectare,100%
same,Percent Control,Yellow Foxtail; 0.07 kgs/hectare,100%
same,Percent Control,Yellow Foxtail; 0.14 kgs/hectare,100%
same,Percent Control,Yellow Foxtail; 0.28 kgs/hectare,100%
same,Percent Control,Canarygrass; 0.00055 kgs/hectare,0%
same,Percent Control,Canarygrass; 0.0011 kgs/hectare,0%
same,Percent Control,Canarygrass; 0.0023 kgs/hectare,0%
same,Percent Control,Canarygrass; 0.0045 kgs/hectare,0%
same,Percent Control,Canarygrass; 0.009 kgs/hectare,0%
same,Percent Control,Canarygrass; 0.018 kgs/hectare,0%
same,Percent Control,Canarygrass; 0.035 kgs/hectare,100%
same,Percent Control,Canarygrass; 0.07 kgs/hectare,100%
same,Percent Control,Canarygrass; 0.14 kgs/hectare,100%
same,Percent Control,Canarygrass; 0.28 kgs/hectare,100%
